Measurements as given in patent US4800194A, “Acylphosphorotriamides useful as lipid-altering agents” (priority 1986, dated 1989).

Columns and labels:
[1] = test system: Hyperlipidemic Guinea Pigs; assay: Multiple dose study in hyperlipidemic guinea pigs: plasma LDL/HDL ratio by lipoprotein electrophoresis (Test Method 2, Example 29); assay type: in vivo, guinea pig; details: 2.5 mg/kg i.p. once daily
Description: Male Hartley guinea pigs (Elm Hill Breeding Labs., Chelmsford, MA or Charles River, Wilmington, MA) was used in all experiments unless otherwise specified. The animals were maintained on a normal diet of rabbit pellets (Purina Rabbit Chow 5321, Ralston Purina, St. Louis, MO) and water containing 0.1% ascorbic acid ad libitum. For special studies in the hyperlipidemic guinea pig model, the animals were maintained on the high cholesterol diet described in this report and water containing 0.1% ascorbic acid ad libitum.
Individual animals were identified by ear and cage markings. The dose of drug or placebo was adjusted daily for changes in the weight of the guinea pigs. Blood samples were collected in EDTA Vacutainers by open chest cardiac puncture under carbon dioxide anesthesia from guinea pigs which had been fasted overnight. The animals were then sacrificed by CO2 inhalation. Blood samples were centrifuged at 2000 rpm for 15 min. in an IEC centrifuge (International Equipment Co., Boston, MA) with a 240 rotor for isolation of plasma. Lipoprotein analyses of plasma were carried out on the same day as the blood collection. Assays of pseudocholinesterase activity were carried out within a week of blood collection on plasma samples which had been stored at 4° C.
Freshly prepared samples of EDTA plasma were analyzed for lipoproteins with the Redi-Disc Lipoprotein Electrophoresis Kit (Miles Laboratories, Elkhart, IN) by the procedure recommended in the package insert supplied in the kit.
Redi-Disc Lipoprotein Gel Tubes, polyacrylamide 3%, buffer, preservative.
Redi-Disc Lipoprotein Loading Gel, acrylamide 2.5 g/dl., N,N'-methylenebisacrylamide 0.6 g/dl, sudan black B 13 mg/dl, catalyst, stabilizer, buffer.
Redi-Disc Lipoprotein Buffer, Trishydroxymethylaminomethane 27% w/w, boric acid 73% w/w, pH of solution 7.4-7.9 (11 g diluted to 1200 ml with water).
The gel tubes were removed from the storage buffer and shaken to remove excess buffer. A 25 μl aliquot of plasma was added to each tube and mixed with 200 μl of loading gel. The loading gel was photopolymerized for 30-40 min. under a fluorescent light. The gel tubes were placed in the electrophoresis apparatus (Buchler Instruments, Fort Lee, NJ) and Redi-Disc Liproprotein Buffer was then added to the upper and lower chambers of the apparatus. The current was adjusted to 5 mA per gel tube. Electrophoresis was stopped when the HDL band was about 4-5 mm from the bottom of the gel tube.
The gels were stored in water for at least 30 min. following electrophoresis to allow the lipoprotein zones to spread. The gels were scanned at 615 nm in either a Beckman Acta C111 spectrophotometer or a Beckman DU-8B spectrophotometer. The areas of the lipoprotein peaks (VLDL, LDL, and HDL) were determined by gravimetric analysis (cut and weighed) on the Acta C111 or by electronic integration on the DU-8B.
A 1:15 mixture of cholesterol:corn oil was prepared by adding 25 g of USP cholesterol (Sigma Chemical Company, St. Louis, MO) to 375 g of corn oil (Mazola, Best Foods, CPC International, Inc., Englewood Cliffs, NJ). The mixture was stirred, sonicated, and heated in a hot water bath until the cholesterol completely dissolved. It was necessary to keep the mixture warm (50°-60° C.) in order to prevent congealing.
Batches of feed were prepared by adding 160 g of the cholesterol-corn oil solution to 840 g of Purina Rabbit Chow 5321. The pellets and lipid mixture were thoroughly mixed in a 2-liter or 3-liter Erlenmeyer flask to ensure uniform coating of the pellets. The feed was then stored at room temperature until needed.
Two groups of male Hartley Guinea pigs were maintained on the high cholesterol diet described above and water containing 0.1% ascorbic acid ad libitum. One group was treated once daily with a freshly prepared solution of test compound 4, N-(diaminophosphinyl)-4-fluorobenzamide, (1.0 mg/ml in 0.9% saline solution) at 2.5 mg/kg by intraperitoneal injection for 14 days. […]

pseudocholinesterase = target: T1, pseudocholinesterase (Homo sapiens, UniProt P06276); assay: Inhibition of human plasma pseudocholinesterase (PChE) activity (Test Method 1); assay type: biochemical; details: 30 min preincubation
T1 construct: a 100 μl aliquot of human plasma; from tissue; host or cells: human plasma (EDTA blood, stored frozen)
T1 sequence (P06276 29-602): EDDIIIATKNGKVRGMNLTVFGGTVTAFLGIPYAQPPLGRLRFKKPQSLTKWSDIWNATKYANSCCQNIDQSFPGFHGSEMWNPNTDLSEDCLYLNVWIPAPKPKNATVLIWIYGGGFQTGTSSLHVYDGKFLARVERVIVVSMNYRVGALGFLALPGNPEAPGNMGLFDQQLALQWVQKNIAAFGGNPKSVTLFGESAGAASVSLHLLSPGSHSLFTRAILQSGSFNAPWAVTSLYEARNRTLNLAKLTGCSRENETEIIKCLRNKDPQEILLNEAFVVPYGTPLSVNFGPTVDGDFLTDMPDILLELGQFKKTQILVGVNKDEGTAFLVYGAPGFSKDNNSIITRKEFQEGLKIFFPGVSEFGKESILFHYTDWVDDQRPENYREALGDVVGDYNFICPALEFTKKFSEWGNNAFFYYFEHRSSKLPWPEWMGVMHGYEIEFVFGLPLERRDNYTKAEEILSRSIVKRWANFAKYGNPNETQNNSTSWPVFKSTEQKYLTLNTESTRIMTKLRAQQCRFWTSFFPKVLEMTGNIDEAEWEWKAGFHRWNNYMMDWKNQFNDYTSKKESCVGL
Method: The following method was used to determine the relative inhibition of pseudocholinesterase and acetylcholinesterase by compounds of the present invention.
Plasma (Source of Pseudocholinesterase Enzyme)
Human Plasma was obtained from blood which was collected in ethylenediaminetetraacetic acid (EDTA) treated tubes. Collected plasma was stored frozen at -20° C. until use.
The buffer/chromogen solution was 0.25 mM 5,5'-dithiobis-[2-nitrobenzoic acid] (chromogen), 50 mM phosphate buffer, pH 7.2. In making up the buffer/chromogen solution and to keep it as colorless as possible, the phosphate buffer was first adjusted to pH 7.1 with NaOH; the chromogen was then added and dissolved; the pH was adjusted to 7.2; and the final volume was adjusted with addition of Milli-Q water. 5,5'-dithiobis-(2-nitrobenzoic acid) was obtained from Sigma Chemicals, St. Louis, MO.
The substrate solution for the pseudocholinesterase assay was 156 mM S-butyrylthiocholine iodide, and the substrate solution for the acetylcholinesterase assay was 156 mM S-acetylthiocholine iodide. Both substrate compounds were obtained from Sigma Chemicals.
Test Compound Stock Solutions
Solutions of all test compounds were made up at 2 μM, 20 μM, and 200 μM concentrations (in 0.9% saline solution) except as noted where lower concentrations were necessary because of decreased solubility of the compound in saline solution.
Pseudocholinesterase (PChE) Assay
In three separate tubes, a 100 μl aliquot of either 0.9% saline solution, 2 μM test compound solution, or 20 μM test compound solution was mixed with a 100 μl aliquot of human plasma, and the tubes were placed in a 35° C. water bath. Four cuvettes, each containing 3 ml buffer/chromogen solution mixed with 100 μl substrate solution (156 mM S-butyrylthiocholine iodide), had been placed in a heated cuvette holder (35° C.) in a Beckman DU-8B Spectrophotometer (Beckman Instruments). After the temperature of the buffer/chromogen/substrate solution in the cuvette had equilibrated for about 10 minutes, and after 0 or 30 minutes incubation of the plasma/test compound solution, a 25 μl aliquot of the plasma/test compound solutions was added to the corresponding cuvettes numbered 2-4. Cuvette #1 remained a blank. After mixing, the net absorbance of each cuvette was determined at 405 nm every 35 seconds for ten readings. From a plot of net absorbance versus time, the initial linear portion of the curve was determined, and a rate of absorbance change per minute was calculated. The positive control (100% PChE activity) was the plasma/saline solution.
Each compound was tested for its ability to inhibit plasma pseudocholinesterase activity and acetylcholinesterase activity. Because of variation in the time points in the linear portion of the curve, inhibition values below 10-15% and higher than 85-90% are nearly indistinguishable from 0% and 100%, respectively.

`NP(N)(=O)NC(=O)c1ccc(F)cc1` [Test Compound 4, N-(diaminophosphinyl)-4-fluorobenzamide] was tested. Which “LDL/HDL ratio vs saline-treated control” value ([1]; 14th day of treatment, result in words) did it give?
The value was “significantly lower (p<0.05)”.

And the LDL/HDL ([1]; day 1, control 2.45)?
Its LDL/HDL is 1.91.

What about the LDL/HDL ([1]; day 3, control 2.28) of the same compound?
Its LDL/HDL is 2.43.

And the LDL/HDL ([1]; day 7, control 4.25)?
The LDL/HDL was 4.08.

What about the LDL/HDL ([1]; day 10, control 3.23) of the same compound?
Its LDL/HDL is 2.75.

And the LDL/HDL ([1]; day 14, control 2.60, significantly different from control (p < 0.05))?
The LDL/HDL was 1.50.

And the inhibition at 1 µM (pseudocholinesterase; 1 μM)?
Its inhibition at 1 µM is 92.8%.

And the inhibition at 10 µM (pseudocholinesterase; 10 μM)?
The inhibition at 10 µM was 99.1%.
